Measured values published in ChEMBL document CHEMBL1201862, “PubChem BioAssay data set” (2004).
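1) Cells in 96-well plates. 2) Compound, 48 h, 5 concentrations. 3) Linear interpolation between surrounding doses. 4) Unreached endpoint = highest concentration. GI50 marks 50% less growth.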 The source made the active and inactive calls. Rule as the data show it: active = GI50 up to about 1.1 µM and inactive = higher.

Legend:
Test in all cases: DTP human tumour cell line panel, 48 h
NCI-H522 = system: NCI-H522
PC-3 = system: PC-3
BT-549 = system: BT-549
HCT-116 = system: HCT-116
Malme-3M = system: Malme-3M
U-251 = system: U-251
SNB-75 = system: SNB-75
MDA-MB-231 = system: MDA-MB-231
SK-MEL-2 = system: SK-MEL-2
SN12C = system: SN12C
UO-31 = system: UO-31
OVCAR-3 = system: OVCAR-3
RXF 393 = system: RXF 393
CCRF-CEM = system: CCRF-CEM
COLO 205 = system: COLO 205
SF-268 = system: SF-268
K562 = system: K562
NCI-H460 = system: NCI-H460
SNB-19 = system: SNB-19
UACC-257 = system: UACC-257
OVCAR-8 = system: OVCAR-8
NCI-H23 = system: NCI-H23
NCI/ADR-RES = system: NCI/ADR-RES
HOP-92 = system: HOP-92
OVCAR-5 = system: OVCAR-5
A549 = system: A549
SF-295 = system: SF-295
DU-145 = system: DU-145
SK-OV-3 = system: SK-OV-3
SW-620 = system: SW-620
HCC 2998 = system: HCC 2998
UACC-62 = system: UACC-62
MCF7 = system: MCF7
EKVX = system: EKVX
SK-MEL-28 = system: SK-MEL-28
MDA-N = system: MDA-N
OVCAR-4 = system: OVCAR-4
IGROV-1 = system: IGROV-1
CAKI-1 = system: CAKI-1
KM12 = system: KM12
Hs-578T = system: Hs-578T
HOP-62 = system: HOP-62
786-0 = system: 786-0
HCT-15 = system: HCT-15
ACHN = system: ACHN
MDA-MB-435 = system: MDA-MB-435
MOLT-4 = system: MOLT-4
LOX IMVI = system: LOX IMVI
M14 = system: M14
T47D = system: T47D
HT-29 = system: HT-29
TK-10 = system: TK-10
SK-MEL-5 = system: SK-MEL-5
HL-60 = system: HL-60
RPMI-8226 = system: RPMI-8226
SR = system: SR
SF-539 = system: SF-539
NCI-H226 = system: NCI-H226

For `COc1cc2nc(Nc3cccc(Br)c3)nc(Nc3cccc(Br)c3)c2cc1OC`, the GI50 (NCI-H522) was 16.7 µM (inactive), the GI50 (PC-3) was 20.4 µM (inactive) and the GI50 (BT-549) was 17 µM (inactive). The GI50 (HCT-116) was 17.6 µM (inactive), the GI50 (Malme-3M) was 19.1 µM (inactive) and the GI50 (U-251) was 19.2 µM (inactive). The GI50 (SNB-75) was 17.3 µM (inactive), the GI50 (MDA-MB-231) was 21.8 µM (inactive) and the GI50 (SK-MEL-2) was 18.4 µM (inactive). For the same compound, the GI50 (SN12C) was 16.4 µM (inactive), the GI50 (UO-31) was 16 µM (inactive) and the GI50 (OVCAR-3) was 16.6 µM (inactive). For the same compound, the GI50 (RXF 393) was 18.4 µM (inactive), the GI50 (CCRF-CEM) was 22.2 µM (inactive) and the GI50 (COLO 205) was 13.9 µM (inactive). The GI50 (SF-268) was 16.2 µM (inactive), the GI50 (K562) was 22.8 µM (inactive) and the GI50 (NCI-H460) was 24.3 µM (inactive). For the same compound, the GI50 (SNB-19) was 16.8 µM (inactive), the GI50 (UACC-257) was > 10 µM (inactive) and the GI50 (OVCAR-8) was 16.6 µM (inactive). For the same compound, the GI50 (NCI-H23) was 17.7 µM (inactive), the GI50 (NCI/ADR-RES) was 19.6 µM (inactive) and the GI50 (HOP-92) was 15.3 µM (inactive). For the same compound, the GI50 (OVCAR-5) was 23.1 µM (inactive), the GI50 (A549) was 17.3 µM (inactive) and the GI50 (SF-295) was 17.7 µM (inactive). For the same compound, the GI50 (DU-145) was 18.3 µM (inactive), the GI50 (SK-OV-3) was 19.2 µM (inactive) and the GI50 (SW-620) was 24.2 µM (inactive). For the same compound, the GI50 (HCC 2998) was 23.6 µM (inactive), the GI50 (UACC-62) was 18.8 µM (inactive) and the GI50 (MCF7) was 16.9 µM (inactive). The GI50 (EKVX) was 19.1 µM (inactive), the GI50 (SK-MEL-28) was 17.2 µM (inactive) and the GI50 (MDA-N) was 18.7 µM (inactive). For the same compound, the GI50 (OVCAR-4) was 15.7 µM (inactive), the GI50 (IGROV-1) was 15.1 µM (inactive) and the GI50 (CAKI-1) was 15.7 µM (inactive). The GI50 (KM12) was 18.9 µM (inactive), the GI50 (Hs-578T) was 19.8 µM (inactive) and the GI50 (HOP-62) was 18 µM (inactive). The GI50 (786-0) was 17.3 µM (inactive), the GI50 (HCT-15) was 17.7 µM and the GI50 (ACHN) was 16 µM (inactive). For the same compound, the GI50 (MDA-MB-435) was 19.7 µM (inactive), the GI50 (MOLT-4) was 20.4 µM (inactive) and the GI50 (LOX IMVI) was 16.7 µM (inactive). The GI50 (M14) was 18.2 µM (inactive), the GI50 (T47D) was 17.1 µM (inactive) and the GI50 (HT-29) was 18.7 µM (inactive). The GI50 (TK-10) was 21.5 µM (inactive) and the GI50 (SK-MEL-5) was 17 µM (inactive).
For `Cc1ccc(-n2c(=O)c3nn4c(=O)n(-c5ccc(C)cc5)c(=O)c4nn3c2=O)cc1`, the GI50 (NCI-H522) was > 100 µM (inactive), the GI50 (PC-3) was > 100 µM (inactive) and the GI50 (BT-549) was > 100 µM (inactive). For the same compound, the GI50 (HL-60) was > 100 µM (inactive), the GI50 (HCT-116) was > 100 µM (inactive) and the GI50 (Malme-3M) was > 100 µM (inactive). The GI50 (U-251) was > 100 µM (inactive), the GI50 (SNB-75) was 58.3 µM (inactive) and the GI50 (SK-MEL-2) was > 100 µM (inactive). The GI50 (SN12C) was > 100 µM (inactive), the GI50 (UO-31) was > 100 µM (inactive) and the GI50 (OVCAR-3) was > 100 µM (inactive). The GI50 (RXF 393) was > 100 µM (inactive), the GI50 (CCRF-CEM) was > 100 µM (inactive) and the GI50 (COLO 205) was > 100 µM (inactive). For the same compound, the GI50 (SF-268) was > 100 µM (inactive), the GI50 (K562) was > 100 µM (inactive) and the GI50 (NCI-H460) was > 100 µM (inactive). For the same compound, the GI50 (SNB-19) was > 100 µM (inactive), the GI50 (UACC-257) was > 100 µM (inactive) and the GI50 (OVCAR-8) was > 100 µM (inactive). The GI50 (RPMI-8226) was > 100 µM (inactive), the GI50 (NCI-H23) was > 100 µM (inactive) and the GI50 (SR) was > 100 µM (inactive). The GI50 (NCI/ADR-RES) was > 100 µM (inactive), the GI50 (HOP-92) was 45.6 µM (inactive) and the GI50 (OVCAR-5) was > 100 µM (inactive). For the same compound, the GI50 (A549) was > 100 µM (inactive), the GI50 (SF-295) was > 100 µM (inactive) and the GI50 (DU-145) was > 100 µM (inactive). For the same compound, the GI50 (SF-539) was > 100 µM (inactive), the GI50 (SK-OV-3) was > 100 µM (inactive) and the GI50 (SW-620) was > 100 µM (inactive). The GI50 (HCC 2998) was > 100 µM (inactive), the GI50 (UACC-62) was > 100 µM (inactive) and the GI50 (MCF7) was > 100 µM (inactive). For the same compound, the GI50 (EKVX) was > 100 µM (inactive), the GI50 (SK-MEL-28) was > 100 µM (inactive) and the GI50 (MDA-N) was > 100 µM (inactive). The GI50 (OVCAR-4) was > 100 µM (inactive), the GI50 (IGROV-1) was > 100 µM (inactive) and the GI50 (CAKI-1) was > 100 µM (inactive). The GI50 (KM12) was > 100 µM (inactive), the GI50 (Hs-578T) was > 100 µM (inactive) and the GI50 (HOP-62) was > 100 µM (inactive). The GI50 (786-0) was > 100 µM (inactive), the GI50 (HCT-15) was greater than 100 µM and the GI50 (ACHN) was > 100 µM (inactive). The GI50 (MDA-MB-435) was > 100 µM (inactive), the GI50 (MOLT-4) was > 100 µM (inactive) and the GI50 (LOX IMVI) was > 100 µM (inactive). The GI50 (M14) was > 100 µM (inactive), the GI50 (T47D) was > 100 µM (inactive) and the GI50 (HT-29) was > 100 µM (inactive). For the same compound, the GI50 (TK-10) was > 100 µM (inactive), the GI50 (SK-MEL-5) was > 100 µM (inactive) and the GI50 (NCI-H226) was > 100 µM (inactive).
